ChEMBL document CHEMBL1127850

Key:
[1] = target: D(1A) dopamine receptor (Rattus norvegicus) (UniProt P18901)
Rattus norvegicus = organism: Rattus norvegicus; test: Tested effective dose for maximal stimulation of adenylate cyclase in rat striatal membrane; type: functional; conditions: Striatum
[2] = target: D(2) dopamine receptor (Homo sapiens) (UniProt P14416)
Description: Tested for binding affinity towards D2 receptor labelled by [3H]- spiperone as radioligand

[3] = target: D(1A) dopamine receptor (Rattus norvegicus) (UniProt P18901); test: Tested for its affinity towards Dopamine receptor D1 in rat striatal membrane; type: cell membranes; conditions: Striatum

Chain of D(1A) dopamine receptor (Rattus norvegicus) (P18901 whole entry): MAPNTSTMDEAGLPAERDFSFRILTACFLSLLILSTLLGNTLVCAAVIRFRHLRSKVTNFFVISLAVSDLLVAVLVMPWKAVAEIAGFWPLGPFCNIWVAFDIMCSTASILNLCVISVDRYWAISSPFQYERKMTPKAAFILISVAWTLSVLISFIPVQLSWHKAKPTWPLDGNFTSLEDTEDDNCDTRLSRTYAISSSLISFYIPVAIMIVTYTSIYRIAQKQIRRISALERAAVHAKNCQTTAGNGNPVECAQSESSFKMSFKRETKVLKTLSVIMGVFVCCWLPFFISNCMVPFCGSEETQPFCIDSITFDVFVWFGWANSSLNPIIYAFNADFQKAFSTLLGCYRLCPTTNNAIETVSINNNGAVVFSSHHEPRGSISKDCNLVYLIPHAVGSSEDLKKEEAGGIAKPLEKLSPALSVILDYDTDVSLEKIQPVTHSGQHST
Chain of D(2) dopamine receptor (Homo sapiens) (P14416 whole entry): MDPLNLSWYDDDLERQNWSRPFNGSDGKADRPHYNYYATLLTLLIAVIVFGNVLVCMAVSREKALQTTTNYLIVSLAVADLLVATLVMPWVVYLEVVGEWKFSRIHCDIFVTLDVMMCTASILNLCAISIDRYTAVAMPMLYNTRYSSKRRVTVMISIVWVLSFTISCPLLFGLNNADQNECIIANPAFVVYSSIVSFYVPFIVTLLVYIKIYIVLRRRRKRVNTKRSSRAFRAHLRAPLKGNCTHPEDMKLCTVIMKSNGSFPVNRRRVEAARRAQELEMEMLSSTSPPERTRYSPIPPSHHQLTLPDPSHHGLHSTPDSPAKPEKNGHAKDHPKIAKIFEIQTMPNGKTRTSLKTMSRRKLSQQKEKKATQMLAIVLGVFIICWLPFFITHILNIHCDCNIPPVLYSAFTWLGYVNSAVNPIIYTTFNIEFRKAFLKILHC

SMILES | K0.5 [1] [nM] | Stimulation (Rattus norvegicus) [%] | K0.5 [2] [nM] | pD2 [3]
Oc1cc2c(cc1O)[C@H]1c3ccccc3CN[C@@H]1CC2 (stereo in doubt; (-)-2) | 149 |  |  | 
Oc1cc2c(cc1O)[C@H]1c3ccccc3CN[C@@H]1CC2 (racemic) | 11.6 | 95 |  | 
Oc1cc2c(cc1O)[C@H]1c3ccccc3CN[C@@H]1CC2 (stereo in doubt; (+)-2) | 5.6 | 105 | 87.7 | 
CN1Cc2ccccc2[C@@H]2c3cccc4[nH]cc(c34)C[C@H]21 |  |  |  | 6.1
